Entries after “also recorded” stand apart in the source; their conditions may differ.
Columns and labels:
MAP4K5 = MAP4K5 (Homo sapiens, UniProt Q9Y4K4); assay: ADP-Glo MAP4K5 kinase assay; format: biochemical; conditions: FIG. 17A
Experimental: (§1) ADP-Glo kinase assay was performed using ADP-Glo™ Kinase Assay (Promega, V6930) according to the manufacture recommended protocol.

HC11 cells = assay: Colony formation assay in HC11 cells; format: cell-based, mouse; conditions: Notch/NACK independent cell line; FIG. 5B
Experimental: A cell based colony formation assay was used in these experiments. Normal mouse mammary epithelia HC11 cells have little or no endogenous NACK expression, and NACK knockdown had no effect on the growth of HC11 cells (FIG. 5A, lower panel). […] Knockdown of NACK was confirmed by western blot and qPCR (FIGS. 1D and 1E). […] Therefore, compounds that affect OE33 colony formation but not HC11 were desired. In order to screen the compounds, cells were treated with test compounds every other day.
Colony formation assay was utilized to determine the effect of small molecule inhibitors on cell proliferation. In general, different cell lines (NACK dependent or independent) will be seeded in 6-well plates at a density of 2000 cells per well and allowed to attach overnight. Inhibitor treatment commenced 24 hours post seeding, and the media containing inhibitor was changed every 48 hours thereafter. After 168 hours, colonies were be stained with Crystal Violet (Millipore) and counted.

LCK = LCK (Homo sapiens, UniProt P06239); assay: ADP-Glo LCK kinase assay; format: biochemical; conditions: FIG. 17B
Experimental: as §1

[1] = system: NACK binding to the Notch transcription complex; assay: CSL-DNA affinity precipitation (CSL-DAP) assay; format: cell-based, mouse; conditions: Y999F NACK and Q1024E NACK mutants (mouse NACK); FIG. 10D
Experimental: (§2) To determine the specificity of hit-to-lead compounds targeting NACK activity, it was evaluated whether iNACK can block NACK binding to the Notch complex by conducting CSL-DNA affinity precipitation (CSL-DAP) assay. […] In the CSL-DAP assay, 293T cells were co-transfected with N1^ICD, Maml1 and NACK. Transfections were performed using LipoJet transfection reagent (SL100468, SignaGen Laboratories) according to the manufacturer recommended protocol. After two days of transfection, cells were treated with compounds for 2 hours prior collecting the cell lysate. Cell lysates were incubated with DNA streptavidin beads. Proteins that bound to the beads were analyzed by Western blot.
(§3) Western blot was performed as described previously (See Weaver et al., Cancer Research 74, 4741-4751 (2014)). Primary antibodies were α-NACK (1:1,000; against aa209-287 of NACK and affinity purified), α-CSL (1:1,000; generated against full-length CSL and affinity purified), α-Maml1 (1:5,000; Cell Signaling Technology), α-cleaved-Notch1 (1:1,000; Cell Signaling Technology).

[2] = target: T1, NACK binding to the Notch transcription complex (Mus musculus, UniProt Q571I4); assay: CSL-DNA affinity precipitation (CSL-DAP) assay; format: cell-based
T1 construct: expressed in transfected cells; host or cells: 293T
T1 sequence (Q571I4 1-1373): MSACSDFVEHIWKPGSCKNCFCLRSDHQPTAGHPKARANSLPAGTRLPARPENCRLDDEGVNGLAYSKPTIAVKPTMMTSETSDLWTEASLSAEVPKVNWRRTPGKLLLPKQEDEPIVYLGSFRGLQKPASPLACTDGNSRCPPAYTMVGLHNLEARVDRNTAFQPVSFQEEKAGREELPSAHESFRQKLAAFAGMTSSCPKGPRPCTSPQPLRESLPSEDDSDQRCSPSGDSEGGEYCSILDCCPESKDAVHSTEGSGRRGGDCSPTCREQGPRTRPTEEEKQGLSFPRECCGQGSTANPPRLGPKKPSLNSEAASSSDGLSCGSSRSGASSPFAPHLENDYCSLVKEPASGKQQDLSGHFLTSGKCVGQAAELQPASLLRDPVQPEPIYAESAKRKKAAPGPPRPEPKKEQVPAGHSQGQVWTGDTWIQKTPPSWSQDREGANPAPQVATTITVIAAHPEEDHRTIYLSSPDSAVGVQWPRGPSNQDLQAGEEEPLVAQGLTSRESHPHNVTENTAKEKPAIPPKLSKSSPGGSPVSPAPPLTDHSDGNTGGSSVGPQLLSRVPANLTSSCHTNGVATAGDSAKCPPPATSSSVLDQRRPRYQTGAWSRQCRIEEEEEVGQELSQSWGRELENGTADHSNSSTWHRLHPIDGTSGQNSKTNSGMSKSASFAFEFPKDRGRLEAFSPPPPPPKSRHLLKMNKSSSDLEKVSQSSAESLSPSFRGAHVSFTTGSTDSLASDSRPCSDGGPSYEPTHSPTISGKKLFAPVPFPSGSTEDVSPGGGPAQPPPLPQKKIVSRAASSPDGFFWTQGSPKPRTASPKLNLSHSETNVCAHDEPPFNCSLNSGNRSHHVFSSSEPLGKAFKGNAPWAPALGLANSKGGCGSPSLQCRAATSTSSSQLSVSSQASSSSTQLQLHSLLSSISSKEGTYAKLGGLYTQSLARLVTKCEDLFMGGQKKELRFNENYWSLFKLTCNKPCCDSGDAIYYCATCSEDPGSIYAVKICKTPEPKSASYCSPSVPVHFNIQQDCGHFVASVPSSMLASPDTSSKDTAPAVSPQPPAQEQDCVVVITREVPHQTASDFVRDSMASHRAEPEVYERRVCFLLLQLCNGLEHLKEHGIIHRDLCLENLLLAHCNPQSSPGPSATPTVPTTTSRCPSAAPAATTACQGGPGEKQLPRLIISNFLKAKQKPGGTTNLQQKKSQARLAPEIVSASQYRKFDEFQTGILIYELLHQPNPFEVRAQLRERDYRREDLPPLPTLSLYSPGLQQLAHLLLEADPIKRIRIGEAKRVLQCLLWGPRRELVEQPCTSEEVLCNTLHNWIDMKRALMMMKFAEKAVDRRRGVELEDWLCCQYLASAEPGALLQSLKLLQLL
Experimental: as §2, §3

OE33 cells = assay: Senescence-associated β-galactosidase assay; format: cell-based, human; conditions: treatment for 3 weeks, FIG. 9B
Experimental: After prolonged Z271-0326 or DAPT treatment for 3 weeks of live cells of OE33, cells were measured by senescence-associated β-galaotosidase activity according to the manufacture recommended protocol (Senescence β-Galaotosidase Staining Kit, Cell Signaling, #9860).

Sequence of LCK (P06239 whole entry, species assumed): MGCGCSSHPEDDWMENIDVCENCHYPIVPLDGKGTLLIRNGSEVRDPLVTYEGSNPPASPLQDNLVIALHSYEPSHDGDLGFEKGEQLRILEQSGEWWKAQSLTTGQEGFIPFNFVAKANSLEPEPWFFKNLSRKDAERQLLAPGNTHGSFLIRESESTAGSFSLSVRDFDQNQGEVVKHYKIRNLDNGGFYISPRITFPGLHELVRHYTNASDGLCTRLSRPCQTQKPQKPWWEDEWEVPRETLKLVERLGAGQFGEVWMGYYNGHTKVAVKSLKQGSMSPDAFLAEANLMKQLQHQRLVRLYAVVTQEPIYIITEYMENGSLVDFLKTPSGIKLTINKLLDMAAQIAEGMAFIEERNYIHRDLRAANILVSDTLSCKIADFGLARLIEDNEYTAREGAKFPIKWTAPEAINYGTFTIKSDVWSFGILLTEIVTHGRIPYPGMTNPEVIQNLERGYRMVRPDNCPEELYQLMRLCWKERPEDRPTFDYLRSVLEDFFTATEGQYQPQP
Sequence of MAP4K5 (Q9Y4K4 whole entry, species assumed): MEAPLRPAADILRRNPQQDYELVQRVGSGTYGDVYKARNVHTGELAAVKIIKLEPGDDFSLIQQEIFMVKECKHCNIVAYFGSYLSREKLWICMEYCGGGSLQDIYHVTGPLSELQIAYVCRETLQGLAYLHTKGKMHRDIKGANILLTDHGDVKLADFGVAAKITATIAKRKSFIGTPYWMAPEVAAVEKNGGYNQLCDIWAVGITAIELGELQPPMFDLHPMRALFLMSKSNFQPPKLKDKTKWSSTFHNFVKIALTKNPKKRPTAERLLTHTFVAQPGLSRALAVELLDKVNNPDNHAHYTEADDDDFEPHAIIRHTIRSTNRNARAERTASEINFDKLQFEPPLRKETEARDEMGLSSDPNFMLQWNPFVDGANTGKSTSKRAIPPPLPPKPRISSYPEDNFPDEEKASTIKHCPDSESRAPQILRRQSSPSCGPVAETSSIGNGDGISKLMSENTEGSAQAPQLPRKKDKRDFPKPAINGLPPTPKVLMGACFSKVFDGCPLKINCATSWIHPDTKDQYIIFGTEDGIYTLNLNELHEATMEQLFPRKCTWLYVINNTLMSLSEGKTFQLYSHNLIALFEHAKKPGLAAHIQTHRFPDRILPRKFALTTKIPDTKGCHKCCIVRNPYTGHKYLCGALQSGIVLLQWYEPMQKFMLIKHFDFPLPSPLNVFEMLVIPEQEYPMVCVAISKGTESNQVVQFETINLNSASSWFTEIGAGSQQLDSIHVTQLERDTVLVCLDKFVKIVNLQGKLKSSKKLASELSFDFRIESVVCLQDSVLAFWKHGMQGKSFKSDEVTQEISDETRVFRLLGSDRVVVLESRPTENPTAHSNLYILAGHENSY

Compound: CCN(CC)C(=O)c1cnn2ccc(C3CCN(S(=O)(=O)c4ccc(NC(C)=O)cc4)CC3)cc12 [Compound Z271-0326, 5-(1-((4-acetamidophenyl)sulfonyl)piperidin-4-yl)-N,N-diethylpyrazolo[1,5-a]pyridine-3-carboxamide]
- MAP4K5 kinase inhibition (MAP4K5): only meaningfully inhibits LCK out of the three kinases
- HC11 colony formation / viability (HC11 cells): but not HC11 cell; also recorded: insensitive
- LCK kinase inhibition (LCK): meaningfully inhibits LCK
- recruitment of NACK to the Notch complex [1]: insensitive to inhibition
- inhibition of NACK binding to the Notch transcription complex ([2]; 293T cells transfected with N1ICD, Maml1, NACK, 2 hours treatment, FIG. 6A): dramatically inhibit NACK binding to the NOTCH transcription complex
- recruitment of NACK to the Notch ternary complex ([2]; WT NACK, FIG. 10D): block recruitment of NACK to the Notch ternary complex
- cellular senescence (senescence-associated β-galactosidase activity) (OE33 cells): resulted in the induction of cellular senescence
